{"source": "paper PMC7948497", "about": "“Iron uptake mediated by the plant-derived chelator nicotianamine in the small intestine” (The Journal of Biological Chemistry, 2020)", "molecular_target": "T1, hPAT1 (SLC36A1) (Homo sapiens, UniProt Q7Z2H8)", "T1 construct": "full open reading frame amplified from human small intestine RNA, pTNT vector, cRNA injected into Xenopus laevis oocytes; 476 residues, about 53 kDa", "T1 sequence (Q7Z2H8 whole entry)": "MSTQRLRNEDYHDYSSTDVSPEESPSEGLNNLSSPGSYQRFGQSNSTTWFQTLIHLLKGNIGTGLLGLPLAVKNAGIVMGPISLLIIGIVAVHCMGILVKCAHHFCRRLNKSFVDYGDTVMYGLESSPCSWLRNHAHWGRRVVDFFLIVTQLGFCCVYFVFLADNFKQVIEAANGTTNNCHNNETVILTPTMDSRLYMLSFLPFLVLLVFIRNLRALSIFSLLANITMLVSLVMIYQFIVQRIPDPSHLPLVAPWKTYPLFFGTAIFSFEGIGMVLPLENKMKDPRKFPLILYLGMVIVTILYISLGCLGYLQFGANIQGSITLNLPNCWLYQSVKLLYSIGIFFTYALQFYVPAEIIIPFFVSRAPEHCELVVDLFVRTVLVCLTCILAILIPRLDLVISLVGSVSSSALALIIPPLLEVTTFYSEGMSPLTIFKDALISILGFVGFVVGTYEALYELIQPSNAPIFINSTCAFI", "assay": "two-electrode voltage clamp of Xenopus oocytes, substrate-induced current; inhibition of NA-Fe(II)-elicited current", "format": "cell-based", "settings": "pH 6.0, -60 mV; 0.5 mM NA-Fe(II) (figure legend; Methods say 1 mM)"}
{"smiles": "N[C@@H](Cc1c[nH]c2ccc(O)cc12)C(=O)O", "note": "[5-hydroxytryptophan]", "values": [{"measurement": "% of original current remaining at 5 mM", "result": 30.1, "unit": "%"}]}
